Data: patent US20260364028A1, “COMBINATION TREATMENTS FOR DEPRESSION AND OTHER DISORDERS” (NEURAWELL THERAPEUTICS, priority 2023, published 2026)
Like-named read-outs stand apart in the source and are kept apart here.

Columns and labels:
[1] = typical circumstances, no MAO inhibition; cited from earlier work
[2] = tested on: tyramine pressor response; settings: cited from earlier work; for TSF High / TSF Low: literature-reported
[3] = plasma, cited from earlier work
depression = settings: meta-analysis of 14 antidepressants and placebo; cited from earlier work
[4] = tested on: systolic or diastolic blood pressure; settings: cited from earlier work
Monoamine Oxidase MAO-A = target: T1, Monoamine Oxidase MAO-A (Homo sapiens, UniProt P21397); assay: Monoamine oxidase MAO-A inhibition enzyme assay (kynuramine, spectrofluorimetric); assay type: biochemical; settings: for interference with the inhibition of MAO-A by phenelzine (in words): beta blocker in presence of phenelzine […] nM and 150 nM; for inhibition at 2 µM / inhibitory activity of MAO-A (in words): beta blocker alone; for inhibitory activity of MAO-A (in words): significant = ≥50% inhibition
T1 construct: host or cells: insect cells (recombinant)
T1 sequence (P21397 1-527): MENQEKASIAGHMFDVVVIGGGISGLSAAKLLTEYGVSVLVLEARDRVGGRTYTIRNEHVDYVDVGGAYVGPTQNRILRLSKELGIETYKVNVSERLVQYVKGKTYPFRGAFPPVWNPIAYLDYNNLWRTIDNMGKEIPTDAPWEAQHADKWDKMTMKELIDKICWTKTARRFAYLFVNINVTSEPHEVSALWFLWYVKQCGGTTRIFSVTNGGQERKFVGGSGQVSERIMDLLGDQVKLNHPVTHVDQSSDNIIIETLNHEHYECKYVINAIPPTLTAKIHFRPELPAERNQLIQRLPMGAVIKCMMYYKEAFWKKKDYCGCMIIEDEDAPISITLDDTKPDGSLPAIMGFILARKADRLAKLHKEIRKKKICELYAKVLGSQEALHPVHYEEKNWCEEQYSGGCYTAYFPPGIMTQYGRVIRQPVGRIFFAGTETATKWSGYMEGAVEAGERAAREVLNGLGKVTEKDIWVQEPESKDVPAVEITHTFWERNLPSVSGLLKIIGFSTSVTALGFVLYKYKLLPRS

Monoamine Oxidase MAO-B = target: T2, Monoamine Oxidase MAO-B (Homo sapiens, UniProt P27338); assay: Monoamine oxidase MAO-B inhibition enzyme assay (kynuramine, spectrofluorimetric); assay type: biochemical; settings: for inhibition at 2 µM: read-out: % MAO-B inhibition
T2 construct: host or cells: insect cells (recombinant)
T2 sequence (P27338 1-520): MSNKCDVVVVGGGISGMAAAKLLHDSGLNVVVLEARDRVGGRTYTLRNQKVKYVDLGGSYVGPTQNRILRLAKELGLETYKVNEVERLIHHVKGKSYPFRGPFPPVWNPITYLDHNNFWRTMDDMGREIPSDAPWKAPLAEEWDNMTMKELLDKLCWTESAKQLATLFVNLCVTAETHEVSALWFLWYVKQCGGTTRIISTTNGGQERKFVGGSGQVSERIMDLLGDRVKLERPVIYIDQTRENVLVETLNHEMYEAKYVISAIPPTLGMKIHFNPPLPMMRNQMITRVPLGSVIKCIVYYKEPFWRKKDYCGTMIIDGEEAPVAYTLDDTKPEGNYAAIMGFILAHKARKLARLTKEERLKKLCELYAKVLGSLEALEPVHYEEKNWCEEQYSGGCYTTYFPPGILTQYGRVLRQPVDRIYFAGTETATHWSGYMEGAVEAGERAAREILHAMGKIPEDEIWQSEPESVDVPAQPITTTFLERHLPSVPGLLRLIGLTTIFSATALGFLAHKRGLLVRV

[5] = Phenelzine 60 mg/d with placebo (no beta blocker)
[6] = Tranylcypromine 20 mg/d with placebo (no beta blocker)
[7] = Selegiline 10 mg/d with placebo (no beta blocker)

In the case of `NCCc1ccc(O)cc1` [tyramine], the “dietary tyramine ending up in systemic circulation” value [1] is given as “less than 1%”.
In the case of `NNCCc1ccccc1` [Phenelzine], the “TSF High” value [2, 5] is given as 30, the “TSF Low” value [2, 5] is given as 9 and the TSF ([2]; phenelzine at 45 mg/day) is given as 13.3. For the same molecule, the half-life [3] was “approximately 11.6 hours”, the “efficacy compared to all other treatments (in words)” value (depression) was “superior efficacy compared to all other treatments” and the “patients with significant transient blood pressure increases (20 mmHg or more) immediately after taking” value [4] was “approximately 50%”.
In the case of `N[C@@H]1C[C@H]1c1ccccc1` (relative stereo) [Tranylcypromine], the “TSF High” value [2, 6] is listed as 55, the “TSF Low” value [2, 6] is listed as 30 and the TSF ([2]; tranylcypromine at 20 mg/day) is listed as 55. For the same molecule, the half-life [3] was “approximately 2.5 hours” and the “patients with significant transient blood pressure increases (20 mmHg or more) immediately after taking” value [4] was “approximately 50%”.
With `CC(C)NCC(O)COc1ccc(COCCOC(C)C)cc1` (centres unmarked) [Bisoprolol] the “interference with the inhibition of MAO-A by phenelzine (in words)” value (Monoamine Oxidase MAO-A) was “no interference was observed”, the inhibition at 2 µM (Monoamine Oxidase MAO-A; role: inhibitor) was -5% and the “inhibitory activity of MAO-A (in words)” value (Monoamine Oxidase MAO-A; role: inhibitor) was “no significant inhibitory activity”. The “inhibitory activity of MAO-B (in words)” value (Monoamine Oxidase MAO-B) was “no significant inhibitory activity”, the “interference with the inhibition of MAO-B by phenelzine (in words)” value (Monoamine Oxidase MAO-B) was “no interference was observed” and the inhibition at 2 µM (Monoamine Oxidase MAO-B) was 13%. For the same molecule, the half-life [3] was 9 to 12 h.
With `Cc1cc(C(=O)NNCc2ccccc2)no1` [Isocarboxazide] the “% MAO-A inhibition” value (Monoamine Oxidase MAO-A; role: inhibitor, isocarboxazid 10 μM) was 91% and the “% MAO-B inhibition” value (Monoamine Oxidase MAO-B) was 98%.
With `COc1ccccc1OCCNCC(O)COc1cccc2[nH]c3ccccc3c12` (centres unmarked) [Carvedilol] the “interference with the inhibition of MAO-A by phenelzine (in words)” value (Monoamine Oxidase MAO-A) was “no interference was observed”, the inhibition at 2 µM (Monoamine Oxidase MAO-A; role: inhibitor) was 4% and the “inhibitory activity of MAO-A (in words)” value (Monoamine Oxidase MAO-A; role: inhibitor) was “no significant inhibitory activity”. For the same molecule, the “inhibitory activity of MAO-B (in words)” value (Monoamine Oxidase MAO-B) was “no significant inhibitory activity”, the “interference with the inhibition of MAO-B by phenelzine (in words)” value (Monoamine Oxidase MAO-B) was “no interference was observed” and the inhibition at 2 µM (Monoamine Oxidase MAO-B) was 23%.
For `CC(C)NCC(O)COc1cccc2[nH]ccc12` (centres unmarked) [Pindolol, 1-(Indol-4-yloxy)-3-(isopropylamino)-2-propanol], the “interference with the inhibition of MAO-A by phenelzine (in words)” value (Monoamine Oxidase MAO-A) was “no interference was observed”, the inhibition at 2 µM (Monoamine Oxidase MAO-A; role: inhibitor) was -1% and the “inhibitory activity of MAO-A (in words)” value (Monoamine Oxidase MAO-A; role: inhibitor) was “no significant inhibitory activity”. For the same molecule, the “inhibitory activity of MAO-B (in words)” value (Monoamine Oxidase MAO-B) was “no significant inhibitory activity”, the “interference with the inhibition of MAO-B by phenelzine (in words)” value (Monoamine Oxidase MAO-B) was “no interference was observed” and the inhibition at 2 µM (Monoamine Oxidase MAO-B) was -5%. For the same molecule, the half-life [3] was 3 to 4 h.
In the case of `C#CCN(C)[C@H](C)Cc1ccccc1` [Selegiline], the “TSF High” value [2, 7] is listed as 4, the “TSF Low” value [2, 7] is listed as 3 and the half-life ([3]; human) is listed as “approximately 10 hours”.
For `COC(=O)CCc1ccc(OCC(O)CNC(C)C)cc1` (centres unmarked) [Esmolol], the half-life [3] is listed as “approximately 9 minutes”.
